Counter-ions that a name gives are not always drawn.
Target: Recombinant human LSD1 (Homo sapiens, UniProt O60341)
Experiment: LSD1 inhibition assay (HTRF LSD1 Histone H3K4 mono-demethylation assay, me1->me0)
Assay type: biochemical
Conditions: 20 nM recombinant human LSD1, 95 nM H3K4(me1) biotinylated peptide, 15 min preincubation, 60 min at 25° C., read-out: LSD1 inhibition IC50 (nM range)
Method in brief: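 Recombinant human LSD1 (20 nM) pre-incubated 15 min with 10 semi-log compound doses, then 95 nM biotinylated H3K4me1 peptide for 60 min at 25 °C in pH 8.5 Tris/NaCl buffer with 10 μM FAD, 1 mM DTT. HTRF me0-antibody read after 90 min; IC50 from 4-parameter fit.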

SMILES | IC50 [nM]
N#Cc1ccc(-c2cccc(CN3CC4CCC(C3)N4)c2C2CC2)cc1F [Example 210, 2'-cyclopropyl-3'-({3,8-diazabicyclo[3.2.1]octan-3-yl}methyl)-3-fluoro-[1,1'-biphenyl]-4-carbonitrile] | 10 to 25
N#Cc1ccc(-c2cccc(CN3C[C@H]4C[C@@H](N)C[C@@H]3C4)c2C2CC2)cc1F (stereo in doubt) [Example 318, 3'-{[(1S,3R,5S)-3-amino-6-azabicyclo[3.2.1]octan-6-yl]methyl}-2'-cyclopropyl-3-fluoro-[1,1'-biphenyl]-4-carbonitrile] | 25 to 100
N#Cc1ccc(-c2cccc(CN3C[C@]4(N)CC[C@H]3C4)c2-c2ccns2)cc1F [Example 171, 4-[3-[[(1S,4S)-4-amino-2-azabicyclo[2.2.1]heptan-2-yl]methyl]-2-isothiazol-5-yl-phenyl]-2-fluoro-benzonitrile hydrochloride] | 10 to 25
N#Cc1ccc(-c2cc(CN3[C@@H]4CC[C@H]3[C@@H](N)C4)ccc2OC[C@@H]2CCCOC2)cc1F (racemic) [Example 231, 5'-{[(1S,2S,4R)-2-amino-7-azabicyclo[2.2.1]heptan-7-yl]methyl}-3-fluoro-2'-{[(3R)-oxan-3-yl]methoxy}-[1,1'-biphenyl]-4-carbonitrile] | 10 to 25
COCC1CCN(c2ccc(CN3[C@@H]4CC[C@H]3[C@@H](N)C4)cc2-c2ccc(C#N)c(F)c2)CC1 (racemic) [Example 209, 5'-{[(1S,2S,4R)-2-amino-7-azabicyclo[2.2.1]heptan-7-yl]methyl}-3-fluoro-2'-[4-(methoxymethyl)piperidin-1-yl]-[1,1'-biphenyl]-4-carbonitrile] | 10 to 25
N#Cc1ccc(-c2cccc(CN3CC4CC(C3)N4)c2C2CC2)cc1F [Example 323, 4-[2-cyclopropyl-3-(3,6-diazabicyclo[3.1.1]heptan-3-ylmethyl)phenyl]-2-fluoro-benzonitrile; (2R,3R)-2,3-dihydroxybutanedioic acid] | 10 to 25
N#Cc1ccc(-c2cccc(CC3CNCCO3)c2-c2cnco2)cc1F (centres unmarked) [Example 47, 3-fluoro-3′-[(morpholin-2-yl)methyl]-2′-(1,3-oxazol-5-yl)-[1,1′-biphenyl]-4-carbonitrile] | 25 to 100
N#Cc1ccc(-c2cc(CN3[C@@H]4CC[C@H]3[C@@H](N)C4)ccc2N2CCCCC2)cc1F (racemic) [Example 255, 5'-{[(1S,2S,4R)-2-amino-7-azabicyclo[2.2.1]heptan-7-yl]methyl}-3-fluoro-2'-(piperidin-1-yl)-[1,1'-biphenyl]-4-carbonitrile] | 10 to 25
Cc1cc(CN2C[C@@H]3C[C@H]2CN3C2COC2)c(Cl)c(-c2ccc(C#N)c(F)c2)c1 [Example 345] | > 1000
N#Cc1ccc(-c2cccc(CN3CCCCC34CCCNC4)c2Cl)cc1F (centres unmarked) [Example 281, 2'-chloro-3'-({1,8-diazaspiro[5.5]undecan-1-yl}methyl)-3-fluoro-[1,1'-biphenyl]-4-carbonitrile] | > 1000
CN[C@H]1C[C@H]2CC[C@@H]1N2Cc1cccc(-c2ccc(C#N)c(F)c2)c1C1CC1 (racemic) [Example 175] | 10 to 25
C[C@@H]1[C@@H](N)CCCN1Cc1cccc(-c2ccc(C#N)c(F)c2)c1Cl [Example 329, 3'-{[(2R,3S)-3-amino-2-methylpiperidin-1-yl]methyl}-2'-chloro-3-fluoro-[1,1'-biphenyl]-4-carbonitrile] | > 1000
N#Cc1ccc(-c2cc(CC3CNCCO3)ccc2N2CC(c3cccnc3)C2)cc1F (centres unmarked) [Example 107, 3-fluoro-5′-[(morpholin-2-yl)methyl]-2′-[3-(pyridin-3-yl)azetidin-1-yl]-[1,1′-biphenyl]-4-carbonitrile] | 100 to 1000
N#Cc1ccc(-c2cccc(CC3CNCCO3)c2C#N)cc1F (centres unmarked) [Example 84, 3′-fluoro-3-[(morpholin-2-yl)methyl]-[1,1′-biphenyl]-2,4′-dicarbonitrile] | > 1000
COc1ccc(-c2c(C)cc(CC3CNCCO3)cc2-c2ccc(C#N)c(F)c2)cn1 (centres unmarked) [Example 85, 3-fluoro-2′-(6-methoxypyridin-3-yl)-3′-methyl-5′-[(morpholin-2-yl)methyl]-[1,1′-biphenyl]-4-carbonitrile] | 100 to 1000
COc1cnc(-c2ccc(CN3[C@@H]4CC[C@H]3[C@@H](N)C4)cc2-c2ccc(C#N)c(F)c2)cn1 (racemic) [Example 317, 5'-{[(1S,2S,4R)-2-amino-7-azabicyclo[2.2.1]heptan-7-yl]methyl}-3-fluoro-2'-(5-methoxypyrazin-2-yl)-[1,1'-biphenyl]-4-carbonitrile] | 10 to 25

The next lines start with the values.

IC50 [nM] | SMILES
10 to 25 | Cn1cc2cc(-c3ccc(CN4C[C@]5(N)CC[C@H]4C5)cc3-c3ccc(C#N)c(F)c3)ccc2n1 [Example 264, 5'-{[(1S,4S)-4-amino-2-azabicyclo[2.2.1]heptan-2-yl]methyl}-3-fluoro-2'-(2-methyl-2H-indazol-5-yl)-[1,1'-biphenyl]-4-carbonitrile]
10 to 25 | N#Cc1ccc(-c2cccc(C[C@@H]3CNCCO3)c2-c2scnc2Cl)cc1F (single isomer, unassigned) [Example 37]
10 to 25 | N#Cc1ccc(-c2cccc(N3CCC(N)CC3)c2-c2cncs2)cc1F [Example 115, 3'-(4-aminopiperidin-1-yl)-3-fluoro-2'-(1,3-thiazol-5-yl)-[1,1'-biphenyl]-4-carbonitrile]
100 to 1000 | COCc1cc(-c2ccc(CC3CNCCO3)cc2-c2ccc(C#N)c(F)c2)on1 (centres unmarked) [Example 129, 3-fluoro-2′-[3-(methoxymethyl)-1,2-oxazol-5-yl]-5′-[(morpholin-2-yl)methyl]-[1,1′-biphenyl]-4-carbonitrile]
< 10 | C[C@]1(N)CCN(Cc2cccc(-c3ccc(C#N)c(F)c3)c2-c2ccns2)C1 [Example 302, 3'-{[(3S)-3-amino-3-methylpyrrolidin-1-yl]methyl}-3-fluoro-2'-(1,2-thiazol-5-yl)-[1,1'-biphenyl]-4-carbonitrile]
10 to 25 | N#Cc1ccc(-c2cccc(CN3CCC4CC3CN4)c2C2CC2)cc1F (centres unmarked) [Example 199, 2'-cyclopropyl-3'-({2,6-diazabicyclo[3.2.1]octan-2-yl}methyl)-3-fluoro-[1,1'-biphenyl]-4-carbonitrile]
25 to 100 | N#Cc1ccc(-c2cccc(CN3CC[C@@H]4NCC[C@@H]43)c2C2CC2)cc1F [Example 273, 3'-{[(3aS,6aS)-octahydropyrrolo[3,2-b]pyrrol-1-yl]methyl}-2'-cyclopropyl-3-fluoro-[1,1'-biphenyl]-4-carbonitrile]
100 to 1000 | N#Cc1ccc(-c2cccc(CC3CNCCO3)c2-c2cocn2)cc1F (centres unmarked) [Example 92, 3-fluoro-3′-[(morpholin-2-yl)methyl]-2′-(1,3-oxazol-4-yl)-[1,1′-biphenyl]-4-carbonitrile]
> 1000 | N#Cc1ccc(-c2cccc(CN3CC4(CCN4)C3)c2Cl)cc1F [Example 292, 2'-chloro-3'-({1,6-diazaspiro[3.3]heptan-6-yl}methyl)-3-fluoro-[1,1'-biphenyl]-4-carbonitrile]
> 1000 | CC(C)(c1ccc(N2CCC2)c(-c2ccc(C#N)c(F)c2)c1)C1CNCCO1 (centres unmarked) [Example 136, 2′-(azetidin-1-yl)-3-fluoro-5′-[2-(morpholin-2-yl)propan-2-yl]-[1,1′-biphenyl]-4-carbonitrile]

— patent US20260209214A1, “LSD1 MODULATORS” (RECURSION PHARMACEUTICALS, INC., priority 2022, published 2026)
